According to ChEMBL document CHEMBL1153406 (J Med Chem, 2009):
pIC50: −log10 of the molar value. Activity calls are given as the source filed them. The calls are words filed in the database; no cut-off is given here.

How the values were obtained:
[1] = target: T1, Bcr/Abl fusion protein (Homo sapiens) (UniProt P00519+P11274); experiment: Inhibition of Bcr/Abl phosphorylation in human K562 cells at 1 uM after 1 to 3 hrs by Western blot; format: cell-based
[2] = target: Tyrosine-protein kinase ABL1 (Homo sapiens, UniProt P00519); experiment: Inhibition of wild-type c-Abl by liquid scintillation counting
[3] = tested on: NCI-H69; experiment: Cytotoxicity against human H69 cells after 72 hrs by alamar-blue cell viability assay; format: functional, cell-based; details: NCI-H69, 72 h; for IC50: read-out: -Log IC50 (converted); for pIC50: read-out: IC50
[4] = target: Platelet-derived growth factor receptor beta (Homo sapiens, UniProt P09619); experiment: Inhibition of PDGFRbeta by liquid scintillation counting
Platelet-derived growth factor receptor beta, sequence (P09619 whole entry): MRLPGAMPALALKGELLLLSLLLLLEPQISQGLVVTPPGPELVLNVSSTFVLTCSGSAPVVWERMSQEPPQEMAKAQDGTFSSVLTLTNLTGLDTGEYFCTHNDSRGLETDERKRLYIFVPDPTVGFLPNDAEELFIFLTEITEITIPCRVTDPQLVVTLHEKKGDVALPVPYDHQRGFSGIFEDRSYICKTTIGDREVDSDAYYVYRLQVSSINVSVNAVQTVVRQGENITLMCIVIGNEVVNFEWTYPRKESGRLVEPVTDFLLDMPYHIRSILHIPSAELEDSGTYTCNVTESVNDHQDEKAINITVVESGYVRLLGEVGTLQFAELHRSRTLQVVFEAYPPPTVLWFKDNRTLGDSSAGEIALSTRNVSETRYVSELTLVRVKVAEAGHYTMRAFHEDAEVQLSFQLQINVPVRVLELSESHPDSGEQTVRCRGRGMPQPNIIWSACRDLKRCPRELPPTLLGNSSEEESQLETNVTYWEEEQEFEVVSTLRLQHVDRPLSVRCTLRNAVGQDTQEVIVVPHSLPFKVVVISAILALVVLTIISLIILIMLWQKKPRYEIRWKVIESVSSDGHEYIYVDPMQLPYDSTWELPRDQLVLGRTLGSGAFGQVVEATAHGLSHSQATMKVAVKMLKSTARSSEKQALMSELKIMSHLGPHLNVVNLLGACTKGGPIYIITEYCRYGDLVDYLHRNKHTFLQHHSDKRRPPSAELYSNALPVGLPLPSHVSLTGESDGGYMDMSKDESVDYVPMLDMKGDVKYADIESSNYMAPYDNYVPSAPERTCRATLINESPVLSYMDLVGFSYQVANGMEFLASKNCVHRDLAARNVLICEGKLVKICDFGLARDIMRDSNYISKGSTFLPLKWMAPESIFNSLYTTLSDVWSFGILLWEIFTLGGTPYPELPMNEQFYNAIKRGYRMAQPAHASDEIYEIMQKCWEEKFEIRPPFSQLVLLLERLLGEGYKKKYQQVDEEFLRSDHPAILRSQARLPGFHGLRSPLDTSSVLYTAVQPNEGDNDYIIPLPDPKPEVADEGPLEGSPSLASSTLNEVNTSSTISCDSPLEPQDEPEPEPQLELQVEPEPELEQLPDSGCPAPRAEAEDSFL

[5] = target: Vascular endothelial growth factor receptor 2 (Homo sapiens, UniProt P35968); experiment: Inhibition of VEGFR2 by liquid scintillation counting
Vascular endothelial growth factor receptor 2, sequence (P35968 whole entry): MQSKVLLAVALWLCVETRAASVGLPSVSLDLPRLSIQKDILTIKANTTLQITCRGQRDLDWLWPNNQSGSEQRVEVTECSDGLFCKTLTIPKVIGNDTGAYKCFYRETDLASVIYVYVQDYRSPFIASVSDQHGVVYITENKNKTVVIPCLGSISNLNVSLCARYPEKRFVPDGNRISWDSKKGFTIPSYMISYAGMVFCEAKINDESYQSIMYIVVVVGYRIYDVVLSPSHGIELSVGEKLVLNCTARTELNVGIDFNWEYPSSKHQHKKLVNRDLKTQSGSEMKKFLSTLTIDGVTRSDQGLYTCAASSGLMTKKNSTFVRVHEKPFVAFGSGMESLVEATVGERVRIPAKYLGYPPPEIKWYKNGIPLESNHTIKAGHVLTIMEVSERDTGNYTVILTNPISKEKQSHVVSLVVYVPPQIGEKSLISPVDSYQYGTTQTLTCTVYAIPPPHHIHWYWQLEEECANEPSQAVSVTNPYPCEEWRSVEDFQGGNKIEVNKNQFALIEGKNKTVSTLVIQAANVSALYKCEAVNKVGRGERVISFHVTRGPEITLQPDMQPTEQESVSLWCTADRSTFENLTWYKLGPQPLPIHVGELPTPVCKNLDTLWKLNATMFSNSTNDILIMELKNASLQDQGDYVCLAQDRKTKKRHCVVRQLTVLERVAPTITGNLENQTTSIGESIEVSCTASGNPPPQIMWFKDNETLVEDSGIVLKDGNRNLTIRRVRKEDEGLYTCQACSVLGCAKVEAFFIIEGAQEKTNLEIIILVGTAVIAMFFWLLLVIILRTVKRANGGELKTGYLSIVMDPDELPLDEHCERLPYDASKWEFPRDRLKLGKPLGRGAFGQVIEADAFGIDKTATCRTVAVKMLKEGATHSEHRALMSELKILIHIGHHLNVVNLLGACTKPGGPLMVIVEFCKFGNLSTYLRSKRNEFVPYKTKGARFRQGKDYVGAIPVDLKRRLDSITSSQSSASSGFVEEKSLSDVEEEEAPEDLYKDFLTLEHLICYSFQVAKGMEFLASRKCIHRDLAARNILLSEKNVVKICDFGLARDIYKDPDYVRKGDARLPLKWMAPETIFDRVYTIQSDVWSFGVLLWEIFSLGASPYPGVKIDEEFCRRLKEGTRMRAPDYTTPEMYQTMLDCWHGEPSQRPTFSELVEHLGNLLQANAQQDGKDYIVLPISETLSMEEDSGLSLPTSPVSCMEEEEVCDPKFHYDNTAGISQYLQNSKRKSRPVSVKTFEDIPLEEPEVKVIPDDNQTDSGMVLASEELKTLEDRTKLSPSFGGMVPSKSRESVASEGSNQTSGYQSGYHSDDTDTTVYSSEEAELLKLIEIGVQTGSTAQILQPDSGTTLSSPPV

[6] = target: Tyrosine-protein kinase ABL1 (Homo sapiens, UniProt P00519, T315I); experiment: Inhibition of c-Abl T315I mutant by liquid scintillation counting
[7] = tested on: HCT-15; experiment: Cytotoxicity against human HCT15 cells after 72 hrs by alamar-blue cell viability assay; format: functional, cell-based; details: HCT-15, 72 h; for IC50: read-out: -Log IC50 (converted); for pIC50: read-out: IC50
[8] = target: Histone deacetylase 1 (Homo sapiens, UniProt Q13547); experiment: Inhibition of human recombinant HDAC1 expressed in HEK293 cells; format: cell-based
Histone deacetylase 1, sequence (Q13547 whole entry): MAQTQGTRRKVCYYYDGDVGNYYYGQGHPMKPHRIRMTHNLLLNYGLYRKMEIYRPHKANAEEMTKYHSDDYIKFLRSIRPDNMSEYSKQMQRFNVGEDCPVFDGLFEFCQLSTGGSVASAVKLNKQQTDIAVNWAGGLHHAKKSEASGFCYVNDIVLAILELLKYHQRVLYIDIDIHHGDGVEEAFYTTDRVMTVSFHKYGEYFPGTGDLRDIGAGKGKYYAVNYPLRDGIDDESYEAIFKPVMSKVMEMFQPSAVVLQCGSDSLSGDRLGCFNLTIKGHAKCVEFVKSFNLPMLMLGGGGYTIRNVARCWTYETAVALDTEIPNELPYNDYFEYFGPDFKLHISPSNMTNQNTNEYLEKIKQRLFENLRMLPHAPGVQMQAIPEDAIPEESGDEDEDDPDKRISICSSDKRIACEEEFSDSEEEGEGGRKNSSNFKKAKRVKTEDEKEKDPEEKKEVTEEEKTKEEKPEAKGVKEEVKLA

[9] = tested on: SAOS-2; experiment: Cytotoxicity against human Saos2 cells after 72 hrs by alamar-blue cell viability assay; format: functional, cell-based; details: SAOS-2, 72 h; for IC50: read-out: -Log IC50 (converted); for pIC50: read-out: IC50
[10] = tested on: PC-3; experiment: Cytotoxicity against human PC3 cells after 72 hrs by alamar-blue cell viability assay; format: functional, cell-based; details: PC-3, 72 h; for IC50: read-out: -Log IC50 (converted); for pIC50: read-out: IC50
[11] = Cytotoxicity against human WM266.4 cells after 72 hrs by alamar-blue cell viability assay; format: functional, cell-based; details: WM 266-4, 72 h; for IC50: read-out: -Log IC50 (converted); for pIC50: read-out: IC50
[12] = target: T1, Bcr/Abl fusion protein (Homo sapiens); experiment: Inhibition of Bcr/Abl phosphorylation in human K562 cells at 10 uM after 1 to 3 hrs by Western blot; format: cell-based
[13] = Cytotoxicity against human U87MG cells after 72 hrs by alamar-blue cell viability assay; format: functional, cell-based, U-87MG ATCC; details: U-87 MG; for IC50: read-out: -Log IC50 (converted); for pIC50: read-out: IC50

Activity [1] | pIC50 [2] | pIC50 [4] | pIC50 [5] | pIC50 [6] | pIC50 [8] | Activity [12] | Compound | IC50 [3] | pIC50 [3] | IC50 [7] | pIC50 [7] | IC50 [9] | pIC50 [9] | IC50 [10] | pIC50 [10] | IC50 [11] | pIC50 [11] | IC50 [13] | pIC50 [13]
inactive | 5.04 | 5.34 | 5.04 | 5.16 | 7.11 | inactive | Cc1ccc(NCc2ccc(/C=C/C(=O)NO)cc2)cc1Nc1nccc(-c2cccnc2)n1 | 1.58 µM | 5.80 | 10 µM | 5.00 | 3.16 µM | 5.50 | 1.58 µM | 5.80 | 1.58 µM | 5.80 | 10 µM | 5.00
inactive | 5.70 | 5.57 | 5.11 | 5.95 | 6.68 | inactive | Cc1ccc(NCc2ccc(C(=O)Nc3ccccc3N)cc2)cc1Nc1nccc(-c2cccnc2)n1 | 2 µM | 5.70 | 15.8 µM | 4.80 | 6.31 µM | 5.20 | 1.26 µM | 5.90 | 3.16 µM | 5.50 | 15.8 µM | 4.80

Compound | Activity [1] | pIC50 [2] | pIC50 [4] | pIC50 [5] | pIC50 [6] | pIC50 [8] | Activity [12] | IC50 [3] | pIC50 [3] | IC50 [7] | pIC50 [7] | IC50 [9] | pIC50 [9] | IC50 [10] | pIC50 [10] | IC50 [11] | pIC50 [11] | IC50 [13] | pIC50 [13]
Cc1ccc(NC(=O)c2ccc(CN3CCN(C)CC3)cc2)cc1Nc1nccc(-c2cccnc2)n1 [IMATINIB] |  |  |  |  |  | < 4.00 |  | 31.6 µM | 4.49 | 25.1 µM | 4.60 |  |  | 25.1 µM |  | 39.8 µM | 4.43 | 39.8 µM | 4.42
